Experimental data reported in patent US10597388B2, “Pyridazinone herbicides” (FMC CORPORATION, priority 2014, dated 2020).

Assays:
Assay in all cases: Test E greenhouse herbicide test, pre- and postemergence
Type in all cases: in vivo
[1] = tested on: beggarticks (hairy beggarticks, Bidens pilosa)
Procedure, shortened: (§1)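 Seeds were sown in silt loam and sprayed preemergence with compound in a non-phytotoxic solvent mix containing surfactant; for postemergence, plants at 2 to 18 cm (1- to 4-leaf stage) in peat-based potting medium were sprayed with the same formulation. After 14 to 21 d in a greenhouse, injury was rated visually against controls (0–100).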

[2] = tested on: crabgrass, large (large crabgrass, Digitaria sanguinalis); details: Preemergence
Procedure, shortened: as §1

[3] = tested on: sandbur (southem sandbur, Cenchrus echinatus)
Procedure, shortened: as §1

kochia (Kochia scoparia) = tested on: kochia (Kochia scoparia)
Procedure, shortened: as §1

[4] = tested on: waterhemp (common waterhemp, Amaranthus rudis)
Procedure, shortened: as §1

[5] = tested on: foxtail, giant (giant foxtail, Setaria faberii); details: Preemergence
Procedure, shortened: as §1

[6] = tested on: johnsongrass (Sorghum halepense); details: Preemergence
Procedure, shortened: as §1

[7] = tested on: velvetleaf (Abutilon theophrasti); details: Preemergence
Procedure, shortened: as §1

[8] = tested on: momingglory (Ipomoea coccinea); details: Preemergence
Procedure, shortened: as §1

[9] = tested on: nutsedge, yellow (yellow nutsedge, Cyperus esculentus); details: Preemergence
Procedure, shortened: as §1

[10] = tested on: Italian ryegrass (Lolium multiflorum)
Procedure, shortened: as §1

[11] = 62 g ai/ha, Postemergence, scale 0 to 100 (0 no effect, 100 complete control)
[12] = 62 g ai/ha, Preemergence, scale 0 to 100 (0 no effect, 100 complete control)
[13] = 125 g ai/ha, Postemergence, scale 0 to 100 (0 no effect, 100 complete control)
[14] = 125 g ai/ha, Preemergence, scale 0 to 100 (0 no effect, 100 complete control)
[15] = 250 g ai/ha, Postemergence, scale 0 to 100 (0 no effect, 100 complete control)
[16] = Postemergence, 31 g ai/ha, visual, scale 0 no effect to 100 complete control
[17] = Preemergence, 31 g ai/ha, scale 0 to 100, 0 no effect, 100 complete control
[18] = Preemergence, 250 g ai/ha, visual, scale 0 no effect to 100 complete control
[19] = 62 g ai/ha, scale 0 to 100 (0 no effect, 100 complete control)
[20] = 125 g ai/ha, scale 0 to 100 (0 no effect, 100 complete control)
[21] = 31 g ai/ha, scale 0 to 100, 0 no effect, 100 complete control
[22] = 250 g ai/ha, visual, scale 0 no effect to 100 complete control

CCOC(=O)Oc1c(C)nn(C)c(=O)c1-c1c(C)sc2c(C)cc(C)cc12 [Compound 83]
100: Plant response rating, Beggarticks [1, 11] | Plant response rating, Beggarticks [1, 12] | Plant response rating, Beggarticks [1, 13] | Plant response rating, Beggarticks [1, 14] | Plant response rating, Beggarticks [1, 15] | Plant response rating, Beggarticks [1, 17] | Plant response rating, Beggarticks [1, 18] | Plant response rating, Foxtail, Giant [5, 20] | Plant response rating, Foxtail, Giant [5, 22] | Plant response rating, Velvetleaf [7, 22] | Plant response rating, Morningglory [8, 22] | Plant response rating, Ryegrass, Italian [10, 18]
0: Plant response rating, Crabgrass, Large [2, 21] | Plant response rating, Kochia (kochia (Kochia scoparia); [12]) | Plant response rating, Kochia (kochia (Kochia scoparia); [14]) | Plant response rating, Kochia (kochia (Kochia scoparia); [17]) | Plant response rating, Johnsongrass [6, 19] | Plant response rating, Johnsongrass [6, 20] | Plant response rating, Johnsongrass [6, 21] | Plant response rating, Velvetleaf [7, 21]
60: Plant response rating, Kochia (kochia (Kochia scoparia); [11]) | Plant response rating, Waterhemp [4, 15] | Plant response rating, Ryegrass, Italian [10, 11] | Plant response rating, Ryegrass, Italian [10, 16]
5: Plant response rating, Crabgrass, Large [2, 19]
20: Plant response rating, Crabgrass, Large [2, 22] | Plant response rating, Sandbur [3, 17] | Plant response rating, Johnsongrass [6, 22] | Plant response rating, Morningglory [8, 19]
40: Plant response rating, Crabgrass, Large [2, 20] | Plant response rating, Sandbur [3, 16] | Plant response rating, Kochia (kochia (Kochia scoparia); [16]) | Plant response rating, Waterhemp [4, 13] | Plant response rating, Waterhemp [4, 16]
35: Plant response rating, Velvetleaf [7, 19]
85: Plant response rating, Ryegrass, Italian [10, 15]
25: Plant response rating, Morningglory [8, 21]
70: Plant response rating, Sandbur [3, 12] | Plant response rating, Sandbur [3, 15] | Plant response rating, Velvetleaf [7, 20] | Plant response rating, Nutsedge, Yellow [9, 20]
98: Plant response rating, Beggarticks [1, 16] | Plant response rating, Foxtail, Giant [5, 19] | Plant response rating, Ryegrass, Italian [10, 14]
65: Plant response rating, Sandbur [3, 13] | Plant response rating, Kochia (kochia (Kochia scoparia); [15]) | Plant response rating, Waterhemp [4, 12] | Plant response rating, Waterhemp [4, 17] | Plant response rating, Nutsedge, Yellow [9, 19] | Plant response rating, Nutsedge, Yellow [9, 21]
95: Plant response rating, Foxtail, Giant [5, 21] | Plant response rating, Morningglory [8, 20] | Plant response rating, Ryegrass, Italian [10, 12]
75: Plant response rating, Sandbur [3, 14] | Plant response rating, Kochia (kochia (Kochia scoparia); [13]) | Plant response rating, Kochia (kochia (Kochia scoparia); [18]) | Plant response rating, Waterhemp [4, 14] | Plant response rating, Waterhemp [4, 18] | Plant response rating, Nutsedge, Yellow [9, 22]
80: Plant response rating, Sandbur [3, 18] | Plant response rating, Ryegrass, Italian [10, 13] | Plant response rating, Ryegrass, Italian [10, 17]

Cc1cc(C)c2sc(C)c(-c3c(OC(=O)OCCCl)c(C)nn(C)c3=O)c2c1 [Compound 85]
30: Plant response rating, Velvetleaf [7, 19] | Plant response rating, Morningglory [8, 19]
80: Plant response rating, Sandbur [3, 14] | Plant response rating, Kochia (kochia (Kochia scoparia); [13]) | Plant response rating, Kochia (kochia (Kochia scoparia); [15]) | Plant response rating, Waterhemp [4, 12] | Plant response rating, Ryegrass, Italian [10, 12] | Plant response rating, Ryegrass, Italian [10, 15] | Plant response rating, Ryegrass, Italian [10, 17]
90: Plant response rating, Beggarticks [1, 16] | Plant response rating, Beggarticks [1, 17] | Plant response rating, Sandbur [3, 18] | Plant response rating, Waterhemp [4, 15]
50: Plant response rating, Sandbur [3, 12] | Plant response rating, Waterhemp [4, 16] | Plant response rating, Morningglory [8, 20] | Plant response rating, Ryegrass, Italian [10, 16]
40: Plant response rating, Sandbur [3, 16]
0: Plant response rating, Crabgrass, Large [2, 19] | Plant response rating, Crabgrass, Large [2, 20] | Plant response rating, Crabgrass, Large [2, 21] | Plant response rating, Sandbur [3, 17] | Plant response rating, Kochia (kochia (Kochia scoparia); [12]) | Plant response rating, Kochia (kochia (Kochia scoparia); [14]) | Plant response rating, Kochia (kochia (Kochia scoparia); [17]) | Plant response rating, Johnsongrass [6, 19] | Plant response rating, Johnsongrass [6, 20] | Plant response rating, Johnsongrass [6, 21] | Plant response rating, Johnsongrass [6, 22] | Plant response rating, Velvetleaf [7, 21]
25: Plant response rating, Crabgrass, Large [2, 22] | Plant response rating, Morningglory [8, 21]
85: Plant response rating, Waterhemp [4, 18]
15: Plant response rating, Foxtail, Giant [5, 21]
60: Plant response rating, Kochia (kochia (Kochia scoparia); [16]) | Plant response rating, Ryegrass, Italian [10, 11]
98: Plant response rating, Kochia (kochia (Kochia scoparia); [18])
70: Plant response rating, Sandbur [3, 13] | Plant response rating, Sandbur [3, 15] | Plant response rating, Kochia (kochia (Kochia scoparia); [11]) | Plant response rating, Waterhemp [4, 14] | Plant response rating, Velvetleaf [7, 20]
35: Plant response rating, Waterhemp [4, 17] | Plant response rating, Nutsedge, Yellow [9, 19] | Plant response rating, Nutsedge, Yellow [9, 20]
100: Plant response rating, Beggarticks [1, 11] | Plant response rating, Beggarticks [1, 12] | Plant response rating, Beggarticks [1, 13] | Plant response rating, Beggarticks [1, 14] | Plant response rating, Beggarticks [1, 15] | Plant response rating, Beggarticks [1, 18] | Plant response rating, Foxtail, Giant [5, 22] | Plant response rating, Morningglory [8, 22] | Plant response rating, Ryegrass, Italian [10, 18]
75: Plant response rating, Ryegrass, Italian [10, 13]
65: Plant response rating, Waterhemp [4, 13] | Plant response rating, Foxtail, Giant [5, 19] | Plant response rating, Nutsedge, Yellow [9, 22]
95: Plant response rating, Foxtail, Giant [5, 20] | Plant response rating, Velvetleaf [7, 22] | Plant response rating, Ryegrass, Italian [10, 14]

C#CCOC(=O)Oc1c(C)nn(C)c(=O)c1-c1c(C)sc2ccc(C)cc12 [Compound 87]
90: Plant response rating, Beggarticks [1, 17] | Plant response rating, Waterhemp [4, 12] | Plant response rating, Waterhemp [4, 14] | Plant response rating, Velvetleaf [7, 20] | Plant response rating, Morningglory [8, 22]
65: Plant response rating, Crabgrass, Large [2, 20] | Plant response rating, Crabgrass, Large [2, 22] | Plant response rating, Sandbur [3, 12] | Plant response rating, Kochia (kochia (Kochia scoparia); [17]) | Plant response rating, Foxtail, Giant [5, 19] | Plant response rating, Johnsongrass [6, 19] | Plant response rating, Nutsedge, Yellow [9, 20]
0: Plant response rating, Crabgrass, Large [2, 19] | Plant response rating, Crabgrass, Large [2, 21] | Plant response rating, Velvetleaf [7, 21] | Plant response rating, Nutsedge, Yellow [9, 21]
95: Plant response rating, Foxtail, Giant [5, 22] | Plant response rating, Velvetleaf [7, 22] | Plant response rating, Ryegrass, Italian [10, 12]
25: Plant response rating, Sandbur [3, 17] | Plant response rating, Foxtail, Giant [5, 21]
70: Plant response rating, Foxtail, Giant [5, 20] | Plant response rating, Johnsongrass [6, 20]
35: Plant response rating, Morningglory [8, 19]
98: Plant response rating, Ryegrass, Italian [10, 14]
50: Plant response rating, Morningglory [8, 20]
60: Plant response rating, Velvetleaf [7, 19] | Plant response rating, Nutsedge, Yellow [9, 19] | Plant response rating, Nutsedge, Yellow [9, 22]
100: Plant response rating, Beggarticks [1, 12] | Plant response rating, Beggarticks [1, 14] | Plant response rating, Beggarticks [1, 18] | Plant response rating, Kochia (kochia (Kochia scoparia); [12]) | Plant response rating, Kochia (kochia (Kochia scoparia); [14]) | Plant response rating, Kochia (kochia (Kochia scoparia); [18]) | Plant response rating, Waterhemp [4, 18] | Plant response rating, Ryegrass, Italian [10, 18]
20: Plant response rating, Morningglory [8, 21]
85: Plant response rating, Sandbur [3, 18]
75: Plant response rating, Sandbur [3, 14] | Plant response rating, Waterhemp [4, 17] | Plant response rating, Johnsongrass [6, 22] | Plant response rating, Ryegrass, Italian [10, 17]
